The results in this text go back to PubChem BioAssay AID342 (DTP/NCI, 2004).

Several values for one entry are separate records, joined by “and”; a condition that tells them apart may be missing. Identical values can stand only once.

The experiment concerns Swiss mice, Sarcoma 180 sc, mean tumor weight T/C. The experiment in a line: NCI In Vivo Anticancer Drug Screen. Data for tumor model Sarcoma 180 (subcutaneous) in Swiss mice. The note with it: endpoint: mean tumor weight, higher = larger tumour. The method in brief: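 Mice bearing transplanted tumors were treated with compound, and survival or tumor size was measured. Values are expressed as the treated-group measurement (T) divided by the vehicle-treated control measurement (C).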

Where [1] appears, read: dose: 12.5 mg/kg/injection, schedule: Q01DX007 (ip), vehicle: carboxymethylcellulose (CMC).
Setting [2] is: dose: 25.0 mg/kg/injection, schedule: Q01DX007 (ip), vehicle: carboxymethylcellulose (CMC).
[3] abbreviates: dose: 50.0 mg/kg/injection, schedule: Q01DX007 (ip), vehicle: carboxymethylcellulose (CMC).
Setting [4] is: dose: 250.0 mg/kg/injection, schedule: Q#A X014 (ip), vehicle: methylcellulose (MC).
The mark [5] stands for this setting: dose: 100.0 mg/kg/injection, schedule: Q01DX007 (ip), vehicle: carboxymethylcellulose (CMC).

On to `CC(C)([NH-])CO.CC(C)([NH-])CO.[Cl][Cd][Cl]`, for which the T/C (in general, the result in the treated group divided by that in the control group, in per cent) is 50 % of control (dose: 1.0 mg/kg/injection, schedule: Q#A X014 (ip), vehicle: methylcellulose (MC)); 91 % of control (dose: 1.0 mg/kg/injection, schedule: Q#A X014 (ip), vehicle: other); 113 % of control (dose: 1.5 mg/kg/injection, schedule: Q#A X014 (ip), vehicle: methylcellulose (MC)); 104 % of control (dose: 1.5 mg/kg/injection, schedule: Q#A X014 (ip), vehicle: other); 70 % of control (dose: 1.75 mg/kg/injection, schedule: Q#A X014 (ip), vehicle: methylcellulose (MC)); 85 % of control (dose: 2.5 mg/kg/injection, schedule: Q#A X014 (ip), vehicle: methylcellulose (MC)). Further, the T/C is 85 % of control (dose: 2.5 mg/kg/injection, schedule: Q#A X014 (ip), vehicle: other); 73 % of control (dose: 2.65 mg/kg/injection, schedule: Q#A X014 (ip), vehicle: methylcellulose (MC)); 73 % of control (dose: 3.75 mg/kg/injection, schedule: Q#A X014 (ip), vehicle: methylcellulose (MC)); 102 % of control (dose: 3.75 mg/kg/injection, schedule: Q#A X014 (ip), vehicle: other); 49 % of control (dose: 4.0 mg/kg/injection, schedule: Q#A X014 (ip), vehicle: methylcellulose (MC)); 36 % of control (dose: 6.0 mg/kg/injection, schedule: Q#A X014 (ip), vehicle: methylcellulose (MC)).

For `COc1ccc2[nH]c3c(C)c4ccncc4c(C)c3c2c1`, the T/C (dose: 6.2 mg/kg/injection, schedule: Q01DX007 (ip), vehicle: carboxymethylcellulose (CMC)) is 81 % of control; the T/C under setting [1] was 77 % of control; the T/C under setting [2] is 33 % of control; the T/C (dose: 27.0 mg/kg/injection, schedule: Q01DX007 (ip), vehicle: saline) was 72 % of control; the T/C (dose: 40.0 mg/kg/injection, schedule: Q01DX007 (ip), vehicle: saline) is 88 % of control; the T/C under setting [3] was 27 % of control. Moreover, the T/C was 97 % of control (dose: 50.0 mg/kg/injection, schedule: Q01DX007 (ip), vehicle: steriod suspending solution); 50 % of control (dose: 60.0 mg/kg/injection, schedule: Q01DX007 (ip), vehicle: saline); 25 % of control (dose: 75.0 mg/kg/injection, schedule: Q01DX007 (ip), vehicle: carboxymethylcellulose (CMC)); 46 % of control (dose: 75.0 mg/kg/injection, schedule: Q01DX007 (ip), vehicle: steriod suspending solution); 24 % of control (dose: 90.0 mg/kg/injection, schedule: Q01DX007 (ip), vehicle: saline); 19 % of control (dose: 150.0 mg/kg/injection, schedule: Q01DX007 (ip), vehicle: carboxymethylcellulose (CMC)). The T/C (dose: 150.0 mg/kg/injection, schedule: Q01DX007 (ip), vehicle: steriod suspending solution) is 31 % of control.

For the compound `CC(/C=N\N=C(N)N)=N/N=C(N)N`, the T/C (dose: 42.1 mg/kg/injection, schedule: Q01DX007 (ip), vehicle: carboxymethylcellulose (CMC)) was 113 % of control.

For the compound `O=C(Nc1ccc([N+](=O)[O-])cc1)Nc1ccc([N+](=O)[O-])cc1` (tested in a mixture with another compound), the T/C was 59 % of control (dose: 37.0 mg/kg/injection, schedule: Q#A X014 (ip), vehicle: methylcellulose (MC)); 60 % of control (dose: 55.5 mg/kg/injection, schedule: Q#A X014 (ip), vehicle: methylcellulose (MC)); 53 % of control and 50 % of control and 52 % of control (dose: 187.5 mg/kg/injection, schedule: Q#A X014 (ip), vehicle: methylcellulose (MC)); 44 % of control under setting [4].

For `CCCOc1ccc2c(c1)CC[C@@H]1[C@@H]2CC[C@@]2(C)[C@H]1CC[C@]2(C)O`, the T/C runs as follows: (dose: 0.5 mg/kg/injection, schedule: Q#A X014 (sc), vehicle: steriod suspending solution) 110 % of control; (dose: 5.0 mg/kg/injection, schedule: Q#A X014 (sc), vehicle: steriod suspending solution) 63 % of control; (dose: 50.0 mg/kg/injection, schedule: Q#A X014 (sc), vehicle: steriod suspending solution) 84 % of control.

In the case of `[O]=[V]`, the T/C is, setting by setting: (dose: 7.5 mg/kg/injection, schedule: Q01DX007 (sc), vehicle: olive oil, sesame oil, peanut oil) 94 % of control; (dose: 15.0 mg/kg/injection, schedule: Q01DX007 (sc), vehicle: olive oil, sesame oil, peanut oil) 89 % of control; (dose: 30.0 mg/kg/injection, schedule: Q01DX007 (sc), vehicle: olive oil, sesame oil, peanut oil) 100 % of control.

On to `N#Cc1cn(C2OC(CO)C(O)C2O)c2ncnc(N)c12` (configuration not stated), for which the T/C (dose: 0.05 mg/kg/injection, schedule: Q#A X014 (ip), vehicle: carboxymethylcellulose (CMC)) is 79 % of control.

Consider `Cc1ccc(NCC2(/N=C/c3ccccc3)OC(CO)C(O)C2O)cc1` (configuration not stated), for which the T/C runs as follows: (dose: 111.0 mg/kg/injection, schedule: Q#A X014 (ip), vehicle: methylcellulose (MC)) 71 % of control and 72 % of control; under setting [4], 67 % of control and 90 % of control.

As for `COC(=O)c1[nH]c(=O)[nH]c(=O)c1F`, the T/C runs as follows: (dose: 4.5 mg/kg/injection, schedule: Q01DX007 (ip), vehicle: carboxymethylcellulose (CMC)) 78 % of control; (dose: 9.0 mg/kg/injection, schedule: Q01DX007 (ip), vehicle: carboxymethylcellulose (CMC)) 44 % of control and 55 % of control; (dose: 14.0 mg/kg/injection, schedule: Q01DX007 (ip), vehicle: carboxymethylcellulose (CMC)) 39 % of control and 51 % of control and 54 % of control; (dose: 21.0 mg/kg/injection, schedule: Q01DX007 (ip), vehicle: carboxymethylcellulose (CMC)) 26 % of control; (dose: 31.0 mg/kg/injection, schedule: Q01DX007 (ip), vehicle: carboxymethylcellulose (CMC)) 10 % of control and 14 % of control; (dose: 47.0 mg/kg/injection, schedule: Q01DX007 (ip), vehicle: carboxymethylcellulose (CMC)) 5 % of control and 7 % of control and 12 % of control.

`CCCCn1cnc2c(=S)nc[nH]c21`: the T/C reads like this: under setting [1], 77 % of control; under setting [2], 53 % of control; under setting [3], 63 % of control; under setting [5], 29 % of control.

With `CCc1c(CC(=O)O)c2cc(C)ccc2n1Cc1ccc(Cl)cc1`, the T/C runs as follows: (dose: 6.25 mg/kg/injection, schedule: Q01DX007 (ip), vehicle: saline) 82 % of control; (dose: 12.5 mg/kg/injection, schedule: Q01DX007 (ip), vehicle: saline) 98 % of control and 87 % of control; (dose: 24.0 mg/kg/injection, schedule: Q01DX007 (ip), vehicle: carboxymethylcellulose (CMC)) 95 % of control; (dose: 36.0 mg/kg/injection, schedule: Q01DX007 (ip), vehicle: carboxymethylcellulose (CMC)) 89 % of control; (dose: 54.0 mg/kg/injection, schedule: Q01DX007 (ip), vehicle: carboxymethylcellulose (CMC)) 109 % of control; (dose: 81.0 mg/kg/injection, schedule: Q01DX007 (ip), vehicle: carboxymethylcellulose (CMC)) 73 % of control. The T/C (dose: 100.0 mg/kg/injection, schedule: Q01DX007 (ip), vehicle: saline) is 64 % of control and 80 % of control.

Regarding `CC(=O)Nc1c(Cl)c(Cl)c2c(c1Cl)Cc1cc(Br)ccc1-2`, the T/C is, setting by setting: (dose: 3.0 mg/kg/injection, schedule: Q01DX007 (ip), vehicle: carboxymethylcellulose (CMC)) 75 % of control; (dose: 6.0 mg/kg/injection, schedule: Q01DX007 (ip), vehicle: carboxymethylcellulose (CMC)) 74 % of control; (dose: 6.0 mg/kg/injection, schedule: Q01DX007 (ip), vehicle: other) 38 % of control; (dose: 9.0 mg/kg/injection, schedule: Q01DX007 (ip), vehicle: other) 69 % of control; (dose: 12.0 mg/kg/injection, schedule: Q01DX007 (ip), vehicle: carboxymethylcellulose (CMC)) 45 % of control; (dose: 13.0 mg/kg/injection, schedule: Q01DX007 (ip), vehicle: other) 46 % of control. Further, the T/C runs as follows: (dose: 19.0 mg/kg/injection, schedule: Q01DX007 (ip), vehicle: other) 56 % of control; under setting [2], 63 % of control; (dose: 28.0 mg/kg/injection, schedule: Q01DX007 (ip), vehicle: other) 35 % of control; (dose: 41.0 mg/kg/injection, schedule: Q01DX007 (ip), vehicle: other) 62 % of control; under setting [3], 49 % of control; (dose: 63.0 mg/kg/injection, schedule: Q01DX007 (ip), vehicle: other) 33 % of control. Also, under setting [5], the T/C is 30 % of control.

Turning to `Cc1ccc2[nH]c(C)c(CCN)c2c1`, the T/C is 95 % of control (dose: 44.0 mg/kg/injection, schedule: Q01DX007 (ip), vehicle: water); 119 % of control (dose: 66.0 mg/kg/injection, schedule: Q01DX007 (ip), vehicle: water); 97 % of control (dose: 100.0 mg/kg/injection, schedule: Q01DX007 (ip), vehicle: water).
